Results taken from US11433055B2, “Chromane monobactam compounds for the treatment of bacterial infections” (priority 2017, dated 2022).
Where a name gives a salt, the structure may show the parent alone. Read-outs that look alike come from different tables or passages of the source.

Columns and labels:
Type in all cases: cell-based
Conditions in all cases: lowest concentration inhibiting 95% of bacterial growth, in the presence of β lactamase inhibitor (BLi, Relebactam), 22 hours, 35±2° C., OD600
[1] = system: Acinetobacter baumannii expressing TEM-1, AmpC, and Oxa-24/40 (CL6188)
[2] = system: Escherichia coli expressing NDM-1 (CLB30016)
[3] = system: Klebsiella pneumoniae expressing KPC-1 (CL6569)
[4] = system: Pseudomonas aeruginosa expressing AmpC (CL5701)

SMILES | AB_CL6188 MITC95 ([1]; sulfate formate) | EC_CLB30016 MITC95 ([2]; sulfate formate) | KP_CL6569 MITC95 ([3]; sulfate formate) | PA_CL5701 MITC95 ([4]; sulfate formate) | AB_CL6188 MITC95 [1] | EC_CLB30016 MITC95 [2] | KP_CL6569 MITC95 [3] | PA_CL5701 MITC95 [4]
C[n+]1cc(-c2ccc3c(c2)CC[C@H]([C@](C)(O/N=C(\C(=O)N[C@@H]2C(=O)N(OS(=O)(=O)[O-])C2(C)C)c2csc(N)n2)C(=O)O)O3)ccc1NC(CN)CN.O=CO [Example 23B, (3S)-3-((Z)-2-(((1S)-1-((2R)-6-(6-((1-amino-3-ammoniopropan-2-yl)amino)-1-methylpyridin-1-ium-3-yl)chroman-2-yl)-1-carboxyethoxy)imino)-2-(2-aminothiazol-4-yl)acetamido)-2,2-dimethyl-4-oxoazetidin-1-yl sulfate formate] | 12.5 µM | 100 µM | 3.125 µM | 25 µM |  |  |  | 
CC1(C)[C@H](NC(=O)/C(=N\O[C@](C)(C(=O)O)[C@H]2CCc3cc(C4CN=C(NC[C@@H](O)CN)NC4)ccc3O2)c2csc(N)n2)C(=O)N1OS(=O)(=O)O.O=CO (stereo partly drawn) [Example 29, 2-(((S)-3-amino-2-hydroxypropyl)amino)-5-((R)-2-((S)-1-((((Z)-1-(2-aminothiazol-4-yl)-2-(((S)-2,2-dimethyl-4-oxo-1-(sulfooxy)azetidin-3-yl)amino)-2-oxoethylidene)amino)oxy)-1-carboxyethyl)chroman-6-yl)-3,4,5,6-tetrahydropyrimidin-1-ium formate] |  |  |  |  | 3.125 µM | 25 µM | 1.563 µM | 6.25 µM
CC1(C)[C@H](NC(=O)/C(=N\O[C@](C)(C(=O)O)[C@H]2CCc3cc(C4CNC(NCCN)=N4)ccc3O2)c2csc(N)n2)C(=O)N1OS(=O)(=O)O (single isomer, unassigned) [Example 25] |  |  |  |  | 50 µM | 6.25 µM | 0.3906 µM | 3.125 µM
CC1(C)[C@H](NC(=O)/C(=N\O[C@](C)(C(=O)O)[C@H]2CCc3cc(-c4ccc(NCCCN)[n+](CC5CNC5)c4)ccc3O2)c2csc(N)n2)C(=O)N1OS(=O)(=O)[O-].O=CO [Example 22, (S)-3-((Z)-2-(((S)-1-((R)-6-(6-((3-aminopropyl)amino)-1-(azetidin-1-ium-3-ylmethyl)pyridin-1-ium-3-yl)chroman-2-yl)-1-carboxyethoxy)imino)-2-(2-aminothiazol-4-yl)acetamido)-2,2-dimethyl-4-oxoazetidin-1-yl sulfate formate] |  |  |  |  | 12.5 µM | 12.5 µM | 0.7813 µM | 25 µM
CC1(C)[C@H](NC(=O)/C(=N\O[C@](C)(C(=O)O)[C@H]2CCc3cc(C4CN=C(NCCCN)NC4)ccc3O2)c2csc(N)n2)C(=O)N1OS(=O)(=O)O (stereo partly drawn) [Example 27, (2S)-2-((2R)-6-(2-((3-aminopropyl)amino)-1,4,5,6-tetrahydropyrimidin-5-yl)chroman-2-yl)-2-(((Z)-(1-(2-aminothiazol-4-yl)-2-(((S)-22-dimethyl-4-oxo-1-(sulfooxy)azetidin-3-yl)amino)-2-oxoethylidene)amino)oxy)propanoic Acid] |  |  |  |  | 12.5 µM | 12.5 µM | 0.7813 µM | 6.25 µM
CC1(C)[C@H](NC(=O)/C(=N\O[C@](C)(C(=O)O)[C@H]2CCc3cc(-c4cn(CCCN)c(=N)n4C[C@H](O)CO)ccc3O2)c2csc(N)n2)C(=O)N1OS(=O)(=O)O [Example 9, (S)-3-((Z)-2-(((S)-1-((R)-6-(1-(3-aminopropyl)-3-((S)-2,3-dihydroxypropyl)-2-imino-2,3-dihydro-1H-imidazol-4-yl)chroman-2-yl)-1-carboxyethoxy)imino)-2-(2-aminothiazol-4-yl)acetamido)-2,2-dimethyl-4-oxoazetidin-1-yl sulfate] |  |  |  |  | 12.5 µM | 12.5 µM | 0.3906 µM | 6.25 µM
C[n+]1cc(-c2ccc3c(c2)CC[C@@H](CO/N=C(\C(=O)N[C@@H]2C(=O)N(OS(=O)(=O)[O-])C2(C)C)c2csc(N)n2)O3)cn1CCCN [Example 10, (S)-3-((Z)-2-((((S)-6-(1-(3-aminopropyl)-2-methyl-1H-pyrazol-2-ium-4-yl)chroman-2-yl)methoxy)imino)-2-(2-aminothiazol-4-yl)acetamido)-2,2-dimethyl-4-oxoazetidin-1-yl sulfate] |  |  |  |  | 12.5 µM | 6.25 µM | 0.3906 µM | 6.25 µM
CC1(C)[C@H](NC(=O)/C(=N\O[C@](C)(C(=O)O)[C@H]2CCc3cc(C4CN=C(NCCN)NC4)ccc3O2)c2csc(N)n2)C(=O)N1OS(=O)(=O)O.O=CO (stereo partly drawn) [Example 30, 2-((2-aminoethyl)amino)-5-((R)-2-((S)-1-((((Z)-1-(2-aminothiazol-4-yl)-2-(((S)-2,2-dimethyl-4-oxo-1-(sulfooxy)azetidin-3-yl)amino)-2-oxoethylidene)amino)oxy)-1-carboxyethyl)chroman-6-yl)-3,4,5,6-tetrahydropyrimidin-1-ium formate] |  |  |  |  | 25 µM | 25 µM | 3.125 µM | 6.25 µM
CC1(C)[C@H](NC(=O)/C(=N/O[C@](C)(C(=O)O)[C@H]2CCc3cc(C4CN=C(NC[C@H](O)CN)NC4)ccc3O2)c2csc(N)n2)C(=O)N1OS(=O)(=O)O.O=CO (stereo partly drawn) [Example 28, 2-(((R)-3-amino-2-hydroxypropyl)amino)-5-((R)-2-((S)-1-((((E)-1-(2-aminothiazol-4-yl)-2-(((S)-2,2-dimethyl-4-oxo-1-(sulfooxy)azetidin-3-yl)amino)-2-oxoethylidene)amino)oxy)-1-carboxyethyl)chroman-6-yl)-3,4,5,6-tetrahydropyrimidin-1-ium formate] |  |  |  |  | 3.13 µM | 6.25 µM | 0.2 µM | 3.13 µM
CC1(C)[C@H](NC(=O)/C(=N\O[C@](C)(C(=O)O)C2CCc3cc(-c4cn(C[C@@H](O)CN)[n+](CCCN)c4)ccc3O2)c2csc(N)n2)C(=O)N1OS(=O)(=O)[O-] (mixture of isomers) [Example 5, (3 S)-3-((Z)-2-(((1 S)-1-(6-(1-((S)-3-amino-2-hydroxypropyl)-2-(3-aminopropyl)-1H-pyrazol-2-ium-4-yl)chroman-2-yl)-1-carboxyethoxy)imino)-2-(2-aminothiazol-4-yl)acetamido)-2,2-dimethyl-4-oxoazetidin-1-yl Sulfate] |  |  |  |  | 25 µM | 100 µM | 6.25 µM | 50 µM
